Here are results for 39 compounds from US20240239813A1, “KRAS INHIBITORS AND PHARMACEUTICAL USES THEREOF” (RISEN (SUZHOU) PHARMA TECH CO., LTD., priority 2022, published 2024).

Where only a bound is given, the exact number is not on record here.

Assay [1] concerns GP2D. Description: Cell proliferation assay (CellTiterGlo), GP2D. The note with it: Homo sapiens, 72 hours. Format: cell-based. On the procedure: (§1) A cell proliferation assay was used to evaluate inhibition by exemplary compounds. Proliferation assays used human tissue derived cancer cell lines, for example, AsPC-1 (Cobioer, CBP60546), GP2D (Cobioer, CBP60683), NCI-H358 (Cobioer, CBP60544), NCI-H727 (Cobioer, CBP60182), MKN-1 (Cobioer, CBP60486), HCT116 (ATCC, CCL-247), and HT-29 (Cobioer, CBP60011). Signal reflecting cell proliferation was detected with the CellTiterGlo kit (Promega, G7573).
(§2) Cells were cultured in the growth phase and 3×10^3 cells per well were plated in a 96-well plate (Greiner, 655090). Cells were incubated 24 hours at 37° C. and 5% carbon dioxide in a humidity chamber. Serially diluted exemplary compounds were added to the plate which was then incubated for another 72 hours. Plates were brought to room temperature and an equal volume of CellTiterGlo reagent was added. After 10 minutes incubation at room temperature to stabilize the signal, the luminescent signal was measured on the VICTOR Nivo multimode plate reader according to the manufacturer's instructions. The signal was converted to percent inhibition using the following formula: […]
(§3) (where the “Maximum Signal” are wells containing DMSO without inhibitor; the “Minimum Signal” are signal of wells recorded at Day 0 prior to commencement of the experiment; the “Test compound signal” are wells containing inhibitor at established concentrations).
(§4) IC50 was determined by fitting percent inhibition at each inhibitor concentration to the four-parameter nonlinear logistic equation using GraphPad Prism. IC50 (nM) values of selected compounds are depicted in Table 4. “-”: means without measuring; and “ND” means not detected.

Assay [2] concerns NCI-H358. Put plainly: Cell proliferation assay (CellTiterGlo), NCI-H358. The note with it: Homo sapiens, NCI-H358, 72 hours. In kind it is cell-based. The method, then: as §1, §2, §3, §4
(In general: In ATP-based viability assays light output follows the ATP content of the culture.)

For assay [3], the target named is His-tagged Human KRAS^G12D (Homo sapiens (Human), UniProt P01116, G12D). Description: HTRF KRAS G12D GTP binding assay. The note with it: displacement of GTP-Red tracer. On the procedure: KRAS^G12D was used in this assay.
The ability of a test compound to bind to KRAS^G12D was measured by using an HTRF KRAS^G12D GTP Binding Kit (Cisbio, 63ADK000CB27PEG). […] 5 μL of compound solution was added to each well after serial dilution, followed by addition of 5 μL of GDP (50 nM) solution. After 30 minutes incubation at room temperature, 1×6His Eu cryptate antibody solution and GTP-Red tracer were added to the plate, then incubated for another 30 minutes. The HTRF signal was measured with a VICTOR Nivo multimode plate reader according to the manufacturer's instructions. The percent inhibition was calculated using the following formula: […]
(where the “Maximum Signal” are wells containing DMSO without inhibitor; the “Minimum Signal” are wells containing reference inhibitory component (GDP); the “Test compound signal” are wells containing test compound (inhibitor) at established concentrations).
IC50 was determined by fitting percent inhibition at each inhibitor concentration to the four-parameter nonlinear logistic equation using GraphPad Prism.

His-tagged Human KRAS^G12D, sequence (P01116-2 other isoform, or with tags, fused parts or gaps G12D): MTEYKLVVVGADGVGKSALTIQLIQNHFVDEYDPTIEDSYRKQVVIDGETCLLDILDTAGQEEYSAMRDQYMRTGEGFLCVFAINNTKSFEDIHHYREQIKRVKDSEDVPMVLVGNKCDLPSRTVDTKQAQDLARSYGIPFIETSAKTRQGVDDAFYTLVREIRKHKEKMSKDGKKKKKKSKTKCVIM

One may read the IC50 as the point on the concentration scale where inhibition reaches its midpoint. Lower therefore signals inhibition by little substance. Regarding `CCc1c(F)ccc2cc(O)cc(-c3ncc4c(N5CCC[C@]6(CCO6)C5)nc(OCC5(CN6CCC7(CC6)CC(N6CCCCC6)C7)CC5)nc4c3F)c12` [Compound 21a], the IC50 in assay [1] came out at 16.3 nM; in assay [2], 92.2 nM; in assay [3], 6.8 nM.
In the case of `CCc1c(F)ccc2cc(O)cc(-c3ncc4c(N5CCC[C@]6(CCO6)C5)nc(OCC5(CN6CCC7(CC6)CC(N6CCOCC6)C7)CC5)nc4c3F)c12` [Compound 20a], the concentration for half-maximal inhibition (IC50) in assay [1] worked out at 4.7 nM; in assay [2], 125 nM; in assay [3] it was 4.7 nM.
As to `CCc1c(F)ccc2cc(O)cc(-c3ncc4c(N5CCC[C@]6(CCO6)C5)nc(OCC5(CN6CCC7(CC6)COC7)CC5)nc4c3F)c12` [Compound 18a], the IC50 was 1.9 nM in assay [1], 23 nM in assay [2] and 4.5 nM in assay [3].
In the case of `CCc1c(F)ccc2cc(O)cc(-c3ncc4c(N5CCC6(CCCCC6)C5)nc(OC[C@@]56CCCN5C[C@H](F)C6)nc4c3F)c12` [Compound 40], the IC50 in assay [3] is > 1000 nM.
Regarding `CCc1c(F)ccc2cc(O)cc(-c3ncc4c(N5CCCC[C@@H](N)C5)nc(OC[C@@]56CCCN5C[C@H](F)C6)nc4c3F)c12` [Compound 38], the IC50 in assay [3] amounted to 163 nM.
With `CCc1c(F)ccc2cc(O)cc(-c3ncc4c(N5CC[C@@H](C(C)(C)O)C5)nc(OC[C@@]56CCCN5C[C@H](F)C6)nc4c3F)c12` [Compound 29], the IC50 in assay [3] was > 10000 nM.
As to `C#Cc1c(F)ccc2cc(O)cc(-c3ncc4c(N5CC=CCC5)nc(OCC5(CN(C)C)CC5)nc4c3F)c12` [Compound 36a], the IC50 in assay [3] was > 1000 nM.
Same read-out and setting: the same measure for `CN(C)CC1(COc2nc(N3CCC[C@]4(CCO4)C3)c3cnc(-c4cc(O)ccc4-c4cccs4)c(F)c3n2)CC1` [Compound 25a]: 639 nM; for `CCc1c(F)ccc2cc(O)cc(-c3ncc4c(N5CCCC5c5ccccc5)nc(OC[C@@]56CCCN5C[C@H](F)C6)nc4c3F)c12` (stereo partly shown) [Compound 19]: > 10000 nM; for `CCc1c(F)ccc2cc(O)cc(-c3ncc4c(N5CCC6CC6(O)C5)nc(OC[C@@]56CCCN5C[C@H](F)C6)nc4c3F)c12` (stereo partly shown) [Compound 52]: > 1000 nM.
Turning to `CCc1c(F)ccc2cc(O)cc(-c3ncc4c(N5CCC6(COC6)C5)nc(OC[C@@]56CCCN5C[C@H](F)C6)nc4c3F)c12` [Compound 61], the IC50 in assay [3] was > 1000 nM.
With `CCc1c(F)ccc2cc(O)cc(-c3ncc4c(N5CCC[C@H]5CN)nc(OC[C@@]56CCCN5C[C@H](F)C6)nc4c3F)c12` [Compound 23], the IC50 in assay [3] was 1350 nM.
Still for that read-out and setting: under `CCc1c(F)ccc2cc(O)cc(-c3ncc4c(N5[C@H](CO)C[C@H]6C[C@H]65)nc(OC[C@@]56CCCN5C[C@H](F)C6)nc4c3F)c12` [Compound 57] stands 510 nM; under `CCc1c(F)ccc2cc(O)cc(-c3ncc4c(OC[C@@]56CCCN5C[C@H](F)C6)nc(OC[C@@]56CCCN5C[C@H](F)C6)nc4c3F)c12` [Compound 47], > 1000 nM.
As for `CCc1c(F)ccc2cc(O)cc(-c3ncc4c(N5CCC6(CCCC6=O)CC5)nc(OC[C@@]56CCCN5C[C@H](F)C6)nc4c3F)c12` [Compound 58], the IC50 in assay [3] is > 1000 nM.
Take `CCc1c(F)ccc2cc(O)cc(-c3ncc4c(N5CCCC6(CCN6)C5)nc(OC[C@@]56CCCN5C[C@H](F)C6)nc4c3F)c12` (stereo partly shown) [Compound 4a]: the IC50 in assay [3] is > 1000 nM.
`CCc1c(F)ccc2cc(O)cc(-c3ncc4c(N5CCC[C@]6(CCO6)C5)nc(OCC5(CN6CCC7(CC6)CC(N6CCC(c8ccc9cnn(C)c9c8)CC6)C7)CC5)nc4c3F)c12` [Compound 19a]: the IC50 in assay [1] was determined as 14.1 nM; in assay [2] it was 15.2 nM; in assay [3], 16.1 nM.
With `CCc1c(F)ccc2cc(O)cc(-c3ncc4c(N5CCC6(CNC(=O)O6)C5)nc(OC[C@@]56CCCN5C[C@H](F)C6)nc4c3F)c12` (stereo partly shown) [Compound 43], the IC50 in assay [3] is > 1000 nM.
As to `CCc1c(F)ccc2cc(O)cc(-c3ncc4c(N5CCC[C@]6(CCO6)C5)nc(OCC5(CN(C)CC6CCOC6)CC5)nc4c3F)c12` (stereo partly shown) [Compound 50a], the IC50 in assay [3] came to 6.76 nM.
For the compound `CCc1c(F)ccc2cc(O)cc(-c3ncc4c(N5CCC[C@]6(CCO6)C5)nc(OCC5(CN6CCC(C(=O)O)CC6)CC5)nc4c3F)c12` [Compound 33a], the IC50 in assay [1] was 421 nM; in assay [2] it was > 10000 nM; in assay [3], 10.3 nM.
As to `CCc1c(F)ccc2cc(O)cc(-c3ncc4c(N5CCC[C@@]5(C)CO)nc(OC[C@@]56CCCN5C[C@H](F)C6)nc4c3F)c12` [Compound 22], in assay [3], the IC50 was > 10000 nM.
Regarding `CCc1c(F)ccc2cc(O)cc(-c3ncc4c(N5CCCC6(CCOC6)C5)nc(OC[C@@]56CCCN5C[C@H](F)C6)nc4c3F)c12` (stereo partly shown) [Compound 64], the IC50 in assay [3] is > 1000 nM.
On to `CCc1c(F)ccc2cc(O)cc(-c3ncc4c(N5CC6CC(C6)C5)nc(OCC5(CN(C)C)CC5)nc4c3F)c12` [Compound 38a], for which, in assay [3], the IC50 was > 1000 nM.
Regarding `CCc1c(F)ccc2cc(O)cc(-c3ncc4c(N5CCC(C)(O)C5)nc(OC[C@@]56CCCN5C[C@H](F)C6)nc4c3F)c12` (stereo partly shown) [Compound 16], the IC50 in assay [3] is > 1000 nM.
On to `N#Cc1c(N)sc2c(F)ccc(-c3c(Cl)cc4c(N5CCC[C@]6(CCO6)C5)nc(OCC5(CN6CCCCC6)CC5)nc4c3F)c12` [Compound 48a], for which, in assay [3], the IC50 was > 1000 nM.
Regarding `CCc1c(F)ccc2cc(O)cc(-c3ncc4c(N5CCN[C@H](C)C5)nc(OC[C@@]56CCCN5C[C@H](F)C6)nc4c3F)c12` [Compound 34], in assay [3], the IC50 is > 1000 nM.
Take `CCc1c(F)ccc2cc(O)cc(-c3ncc4c(N5CCCCCC5)nc(OCC5(CN(C)C)CC5)nc4c3F)c12` [Compound 43a]: in assay [3], the IC50 is 557 nM.
Turning to `CCc1c(F)ccc2cc(O)cc(-c3ncc4c(N5CCC(C)(CO)C5)nc(OC[C@@]56CCCN5C[C@H](F)C6)nc4c3F)c12` (stereo partly shown) [Compound 56], in assay [3], the IC50 is > 1000 nM.
Same read-out and setting: the same measure for `CCc1c(F)ccc2cc(O)cc(-c3c(Cl)cc4c(N5CCCC6(CCO6)C5)nc(OC[C@@]56CCCN5C[C@H](F)C6)nc4c3F)c12` (stereo partly shown) [Compound 92]: 416 nM; for `CCc1c(F)ccc2cc(O)cc(-c3c(F)cc4c(N5CCCC6(CCO6)C5)nc(OC[C@@]56CCCN5C[C@H](F)C6)nc4c3F)c12` (stereo partly shown) [Compound 96]: 128 nM; for `CCc1c(F)ccc2cc(O)cc(-c3ncc4c(N5CCC(C(C)=O)CC5)nc(OC[C@@]56CCCN5C[C@H](F)C6)nc4c3F)c12` [Compound 49]: > 1000 nM.
Turning to `CCc1c(F)ccc2cc(O)cc(-c3ncc4c(N5CCC[C@]6(CCO6)C5)nc(OCC5(CN(C)CC6COC6)CC5)nc4c3F)c12` [Compound 49a], in assay [3], the half-maximal inhibitory concentration (IC50) was determined as 4.05 nM.
Still for that read-out and setting: under `CCc1c(F)ccc2cc(O)cc(-c3ncc4c(N5CCC[C@]6(CCO6)C5)nc(OCC5(CN6CCC(F)C6)CC5)nc4c3F)c12` (stereo partly shown) [Compound 41a] stands 14.2 nM; under `CCc1c(F)ccc2cc(O)cc(-c3ncc4c(N5CC(C)(O)C5)nc(OC[C@@]56CCCN5C[C@H](F)C6)nc4c3F)c12` [Compound 18], > 10000 nM.
The same measure, in the same setting: under `CCc1c(F)ccc2cc(O)cc(-c3ncc4c(N5CC6(CC(O)C6)C5)nc(OC[C@@]56CCCN5C[C@H](F)C6)nc4c3F)c12` [Compound 36] stands > 1000 nM; under `CCc1c(F)ccc2cc(O)cc(-c3ncc4c(N5CCC6(CC5)COC6)nc(OC[C@@]56CCCN5C[C@H](F)C6)nc4c3F)c12` [Compound 53], > 1000 nM.
Same read-out and setting: under `CCc1c(F)ccc2cc(O)cc(-c3ccc4c(N5CCCC6(CCO6)C5)nc(OC[C@@]56CCCN5C[C@H](F)C6)nc4c3F)c12` (stereo partly shown) [Compound 70] stands 67.4 nM.
With `CCc1c(F)ccc2cc(O)cc(-c3ncc4c(N5C[C@@H]6C[C@H]5CO6)nc(OC[C@@]56CCCN5C[C@H](F)C6)nc4c3F)c12` [Compound 35], the IC50 in assay [3] is > 1000 nM.
In the case of `CCc1c(F)ccc2cc(O)cc(-c3ncc4c(N5CCC6(CCO6)CC5)nc(OC[C@@]56CCCN5C[C@H](F)C6)nc4c3F)c12` [Compound 60], in assay [3], the IC50 was > 1000 nM.
